According to paper PMC12442081, “Combating Fuel Biocontamination: Tailored Antimicrobial Peptides and an Innovative Delivery Strategy” (ACS Applied Bio Materials, 2025):
Like-named read-outs stand apart in the source and are kept apart here. Where no end group is shown, it is not given here.

What was measured:
[1] = test system: Bacillus licheniformis (BL) ATCC 14580; assay type: cell-based
Procedure: (§1) All of the bacterial species were grown overnight at 37 °C in LB broth. 10^7 CFU/mL of cells were resuspended in fresh culture and grown until the mid log phase. , The bacterial cells were adjusted to a concentration of 5 × 10^5 CFU/mL to quantify the MIC. Equal volumes of the respective bacterial cultures were incubated with the serially diluted peptides in 96-well microtiter plate and incubated overnight at 37 °C in ambient air. Microorganisms without peptides were treated as the positive control, while uninoculated broth was used as the negative control. The MIC was taken as the lowest peptide concentration at which observable bacteria growth was inhibited, as measured by a microplate reader (Biotek Synergy H1 microplate reader). Experiments were performed in triplicates, and the mean MIC values were determined. A similar study was performed to understand the effect of peptide purity, i.e., ranging from 70 to 95%, on the peptide MIC.

[2] = test system: Dermacoccus nishinomiyaensis (DN) ATCC 29093; assay type: cell-based
Procedure: as §1

[3] = test system: Macrococcus caseolyticus (MC) ATCC 13548; assay type: cell-based
Procedure: as §1

[4] = test system: Micrococcus yunnanensis (MY) ATCC 12698; assay type: cell-based
Procedure: as §1

[5] = test system: Pseudomonas aeruginosa (PA) ATCC 39327; assay type: cell-based
Procedure: as §1

[6] = test system: Sphingomonas paucimobilis (SP); assay type: cell-based
Procedure: as §1

[7] = HPLC retention time as a function of peptide hydrophobicity; assay type: physicochemical; settings: chromatographic, Polaris 5 C18-A reverse phase, 0.1% TFA water / 0.1% TFA acetonitrile gradient, 30 min, 300 μM peptide
Procedure: The purity of the peptides was ascertained by high-performance liquid chromatography (HPLC) using Polaris 5 C18-A […] × 4.6 mm reverse phase Zorbax columns from Agilent Technologies. The buffer system contained 0.1% (v/v) TFA in 100% water and 0.1% (v/v) TFA in 100% acetonitrile. Each peptide sample contained 300 μM peptides dissolved in an acetonitrile–water (1:4) mixture. A constant gradient of the two solvent systems was used to generate the chromatogram for 30 min after sample injection.

[8] = test system: Bacillus licheniformis (BL); experiment: Effectiveness of peptides on spiked fuel samples (aqueous layer); assay type: cell-based; parameters: key: (+) =1 (implying peptide activity in fuel environment); (X) = 0 (implying no activity in the desired range, indicated by microbial proliferation); Fuel x = -1(implying no activity in fuel environment); settings: initial screening in spiked fuel
Procedure: (§2) To study the partitioning of microbes in fuel tanks, filter-sterilized fuel was mixed with BH medium in a 1:1 (v/v) ratio. The inoculum was added to the aqueous phase at the bottom to simulate growth in the aqueous layer of fuel tanks and incubated aerobically at 30 °C for 30 days. Visible growth was assessed, and aliquots from both the aqueous and fuel phases were plated on nutrient agar plates to evaluate microbial growth. Peptides were initially added to the aqueous layer of microbially spiked fuel samples for screening the effectiveness in the fuel environment. The study was further extended over a longer duration, and incubated under aerobic conditions at 30 °C for 30 days. Microbial growth was monitored at regular intervals by plating aliquots from the aqueous layer on the nutrient agar plates.
(§3) The engineered peptides were administered at their respective MICs to the aqueous layer of simulated fuel samples, and samples from both the aqueous and solvent (fuel) layers were removed at intervals of 7, 14, 21, and 30 days and plated on LBA plates to assess cell viability (Table S5).

[9] = test system: Dermacoccus nishinomiyaensis (DN); experiment: as above; assay type: cell-based; parameters: key: (+) =1 (implying peptide activity in fuel environment); (X) = 0 (implying no activity in the desired range, indicated by microbial proliferation); Fuel x = -1(implying no activity in fuel environment); settings: initial screening in spiked fuel
Procedure: as §2, §3

Hormoconis resinae (HR) = experiment: as above; assay type: cell-based; parameters: key: (+) =1 (implying peptide activity in fuel environment); (X) = 0 (implying no activity in the desired range, indicated by microbial proliferation); Fuel x = -1(implying no activity in fuel environment); settings: initial screening in spiked fuel
Procedure: as §2, §3

Kocuria rosea (KR) = experiment: as above; assay type: cell-based; parameters: key: (+) =1 (implying peptide activity in fuel environment); (X) = 0 (implying no activity in the desired range, indicated by microbial proliferation); Fuel x = -1(implying no activity in fuel environment); settings: initial screening in spiked fuel
Procedure: as §2, §3

[10] = test system: Macrococcus caseolyticus (MC); experiment: as above; assay type: cell-based; parameters: key: (+) =1 (implying peptide activity in fuel environment); (X) = 0 (implying no activity in the desired range, indicated by microbial proliferation); Fuel x = -1(implying no activity in fuel environment); settings: initial screening in spiked fuel
Procedure: as §2, §3

[11] = test system: Micrococcus yunnanensis (MY); experiment: as above; assay type: cell-based; parameters: key: (+) =1 (implying peptide activity in fuel environment); (X) = 0 (implying no activity in the desired range, indicated by microbial proliferation); Fuel x = -1(implying no activity in fuel environment); settings: initial screening in spiked fuel
Procedure: as §2, §3

[12] = test system: Pseudomonas aeruginosa (PA); experiment: as above; assay type: cell-based; parameters: key: (+) =1 (implying peptide activity in fuel environment); (X) = 0 (implying no activity in the desired range, indicated by microbial proliferation); Fuel x = -1(implying no activity in fuel environment); settings: initial screening in spiked fuel
Procedure: as §2, §3

Roseomonas mucosa (RM) = experiment: as above; assay type: cell-based; parameters: key: (+) =1 (implying peptide activity in fuel environment); (X) = 0 (implying no activity in the desired range, indicated by microbial proliferation); Fuel x = -1(implying no activity in fuel environment); settings: initial screening in spiked fuel
Procedure: as §2, §3

[13] = test system: Sphingomonas paucimobilis (SP); experiment: as above; assay type: cell-based; parameters: key: (+) =1 (implying peptide activity in fuel environment); (X) = 0 (implying no activity in the desired range, indicated by microbial proliferation); Fuel x = -1(implying no activity in fuel environment); settings: initial screening in spiked fuel
Procedure: as §2, §3

[14] = test system: microbial clusters MY, KR, DN, MC, BL, RM, SP, PA, HR; experiment: Broad-spectrum activity score (in-house scoring matrix); settings: sum over 9 microbial clusters: (+) = 1, (X) = 0, Fuel x = -1
Procedure: Table S4. Summarizing the broad-spectrum activity of the peptides, considering the MIC value/ efficacy to control microbial growth upon fuel co-incubation
Peptides Bacterial clusters Fungal
Actinobacteria Firmicutes Proteobacteria Asco- […]
Peptides identified based on the scoring matrix, where (+) =1 (implying peptide activity in fuel environment); (X) = 0 (implying no activity in the desired range, indicated by microbial proliferation); Fuel x = -1(implying no activity in fuel environment).
Clearly, P17 is the best performing peptide in vitro across diverse microbial phyla as well as when incubated in the fuel environment. Based on the activity of the selected peptides, the best

[15] = LB broth, 5 × 10^5 CFU/mL, overnight 37 °C, mean of triplicates, “–” = no detectable activity

Compound	MIC ([1]; ATCC 14580) [µM]	MIC [2] [µM]	MIC [3] [µM]	MIC [4] [µM]	MIC ([5]; ATCC 39327) [µM]	MIC [6] [µM]	R t, retention time of peptide on HPLC column as a function of peptide hydrophobicity [7] [min]	activity considering MIC value/efficacy upon fuel co-incubation [8]	activity considering MIC value/efficacy upon fuel co-incubation [9]	activity considering MIC value/efficacy upon fuel co-incubation (Hormoconis resinae (HR))	activity considering MIC value/efficacy upon fuel co-incubation (Kocuria rosea (KR))	activity considering MIC value/efficacy upon fuel co-incubation [10]	activity considering MIC value/efficacy upon fuel co-incubation [11]	activity considering MIC value/efficacy upon fuel co-incubation [12]	activity considering MIC value/efficacy upon fuel co-incubation (Roseomonas mucosa (RM))	activity considering MIC value/efficacy upon fuel co-incubation [13]	Score [14]	MIC [1, 15] [µM]	MIC [5, 15] [µM]	MIC [6, 15] [µM]
ILPWKFPWWPWRR [P9]	3.9	0.9	0.9	0.9	31.25	7.8	12.610	+	+	X	X	+	+	X	X	X	4			
ILPWRWPWWPWRR [P10]							12.417	+	X	X	X	X	X	X	X	X	1	3.9	31.25	7.8
CC[C@H](C)[C@H](N)C(=O)N[C@@H](CC(C)C)C(=O)N[C@H](C(=O)N[C@@H](Cc1c[nH]c2ccccc12)C(=O)N[C@@H](CCCCN)C(=O)N[C@@H](Cc1c[nH]c2ccccc12)C(=O)N1CCC[C@H]1C(=O)N[C@@H](Cc1c[nH]c2ccccc12)C(=O)N[C@@H](Cc1c[nH]c2ccccc12)C(=O)N1CCC[C@H]1C(=O)N[C@@H](Cc1c[nH]c2ccccc12)C(=O)N[C@@H](CCCNC(=N)N)C(=O)N[C@@H](CCCNC(=N)N)C(=O)O)C(C)C [P12]	3.9	0.9	0.9	0.9	7.8	0.9	12.903	+	+	X	X	+	X	X	X	+	4			
CC[C@H](C)[C@H](N)C(=O)N[C@@H](CC(C)C)C(=O)N[C@@H](Cc1c[nH]c2ccccc12)C(=O)N[C@@H](Cc1c[nH]c2ccccc12)C(=O)N[C@@H](CCCCN)C(=O)N[C@@H](Cc1c[nH]c2ccccc12)C(=O)N1CCC[C@H]1C(=O)N[C@@H](Cc1c[nH]c2ccccc12)C(=O)N[C@@H](Cc1c[nH]c2ccccc12)C(=O)N1CCC[C@H]1C(=O)N[C@@H](Cc1c[nH]c2ccccc12)C(=O)N[C@@H](CCCNC(=N)N)C(=O)N[C@@H](CCCNC(=N)N)C(=O)O [P15]	0.9		0.9			0.9	14.327	+	X	X	X	+	X	X	X	+	3			
